In brackets after ≈: the same amount, converted by molar mass. Where two headings read alike, the source gives them in different places.
How the values were obtained:
[1] = tested on: Peripheral blood mononuclear cells (PBMC); assay: Cytotoxicity testing, MTT assay; type: cell-based
[2] = tested on: P. aeruginosa (ATCC 27853); assay: Microdilution susceptibility testing; details: for IC50: ATCC27853, read-out: IC50 ± SEM
CIMRSA 1 [3] = assay: Microdilution susceptibility testing; details: for IC50: read-out: IC50 ± SEM
[4] = tested on: K. pneumoniae (ATCC 13883); assay: Microdilution susceptibility testing; details: for IC50: ATCC13883, read-out: IC50 ± SEM
B. cereus (ATCC 10876) = assay: Microdilution susceptibility testing; details: for IC50: ATCC10876, read-out: IC50 ± SEM
CIMRSA 1 [5] = assay: Determination of bactericidal concentration; type: cell-based, Clinical isolate of methicillin-resistant S. aureus; details: CIMRSA 1 and 2 (both strains, text summary)
E. coli (ATCC 25922) = assay: Microdilution susceptibility testing
S. aureus (ATCC 29213) = assay: Microdilution susceptibility testing; details: for IC50: ATCC29213, read-out: IC50 ± SEM
[6] = tested on: S. saprophyticus (ATCC 15305); assay: Microdilution susceptibility testing; details: for IC50: ATCC15305, read-out: IC50 ± SEM
MRSA ATCC 43300 = assay: Microdilution susceptibility testing; details: for IC50: read-out: IC50 ± SEM
CIMRSA 2 = assay: Microdilution susceptibility testing; details: for IC50: read-out: IC50 ± SEM
[7] = tested on: Gram-positive and Gram-negative bacteria; assay: Antibacterial activity against the bacteria of Table 1; details: for antibacterial activity: all bacteria presented in Table 1, result in words
[8] = Cytotoxicity testing, MTT assay; type: cell-based; details: human
[9] = tested on: Leishmania donovani amastigotes; details: cited from earlier work
[10] = target: L. donovani DNA topoisomerase IB enzyme (LdTopIB); details: ref Carballeira et al., 2012; cited from earlier work
[11] = tested on: Mycobacterium tuberculosis; details: ref Carballeira et al., 2006; cited from earlier work
[12] = tested on: Neisseria gonorrhoeae, Neisseria meningitidis, and Bacteroides fragilis; details: N. gonorrhoeae, B. fragilis, ref Konthikamee et al., 1982; cited from earlier work
[13] = P. aeruginosa ATCC 27853, 37°C, 18-24 h
[14] = K. pneumoniae ATCC 13883, 37°C, 18-24 h
[15] = B. cereus ATCC 10876, 37°C, 18-24 h
[16] = E. coli ATCC 25922, 37°C, 18-24 h
[17] = S. aureus ATCC 29213, 37°C, 18-24 h
[18] = S. saprophyticus ATCC 15305, 37°C, 18-24 h
[19] = Pseudomonas aeruginosa, ATCC27853
[20] = Klebsiella pneumoniae, ATCC13883
[21] = Staphylococcus aureus, ATCC29213
[22] = Staphylococcus saprophyticus, ATCC15305, S. saprophyticus ATCC 15305, 37°C, 18-24 h
[23] = peripheral blood mononuclear cells (PBMC)
[24] = Staphylococcus aureus, ATCC43300|MRSA

SMILES	bactericidal concentration (CIMRSA 1 [5]) [µg/mL]	MIC [2, 19] [µg/mL]	MIC [4, 20] [µg/mL]	MIC (B. cereus (ATCC 10876); Bacillus cereus, ATCC10876) [µg/mL]	MIC (E. coli (ATCC 25922); Escherichia coli, ATCC25922) [µg/mL]	MIC (S. aureus (ATCC 29213); [21]) [µg/mL]	MIC [6, 22] [µg/mL]	antibacterial activity [7]	MIC (CIMRSA 1 [3]; Staphylococcus aureus) [µg/mL]	IC50 (CIMRSA 1 [3]; Staphylococcus aureus) [µg/mL]	IC50 ([4]; Klebsiella pneumoniae) [µg/mL]	IC50 (B. cereus (ATCC 10876); Bacillus cereus) [µg/mL]	IC50 (S. aureus (ATCC 29213); Staphylococcus aureus) [µg/mL]	IC50 ([6]; Staphylococcus saprophyticus) [µg/mL]	MIC (MRSA ATCC 43300; [24]) [µg/mL]	IC50 (MRSA ATCC 43300; [24]) [µg/mL]	MIC (CIMRSA 2; Staphylococcus aureus) [µg/mL]	IC50 (CIMRSA 2; Staphylococcus aureus) [µg/mL]	other results
CCCCCCC#CCCCCCC#CC(=O)O [2,9-HDA]	125 to 500	–	–	–	–	–	–	–	–	–	–	–	–	–	–	–	–	–	PBMC cytotoxicity, IC50 ± SEM [1]: 93.3 ± 0.4 µg/mL; MIC [2, 13]: >1,000 μg/mL; IC50 ± SEM (CIMRSA 1 [3]; CIMRSA 1): 102.1 ± 2.4 µg/mL (≈ 411 µM); MIC (CIMRSA 1 [3]; CIMRSA 1): 250 µg/mL (≈ 1010 µM); IC50 ± SEM [4, 14]: 135.4 ± 0.7 µg/mL (≈ 545 µM); MIC [4, 14]: 250 µg/mL (≈ 1010 µM); IC50 ± SEM (B. cereus (ATCC 10876); [15]): 34.2 ± 0.3 µg/mL (≈ 138 µM); MIC (B. cereus (ATCC 10876); [15]): 62.5 µg/mL (≈ 252 µM); MIC (E. coli (ATCC 25922); [16]): >1,000 μg/mL; IC50 ± SEM (S. aureus (ATCC 29213); [17]): 94.0 ± 0.9 µg/mL (≈ 378 µM); MIC (S. aureus (ATCC 29213); [17]): 250 µg/mL (≈ 1010 µM); IC50 ± SEM [6, 18]: 61.5 ± 1.2 µg/mL (≈ 248 µM); MIC [6, 18]: 125 µg/mL (≈ 503 µM); IC50 ± SEM (MRSA ATCC 43300; MRSA ATCC 43300): 203.5 ± 2.6 µg/mL (≈ 819 µM); MIC (MRSA ATCC 43300; MRSA ATCC 43300): 500 µg/mL (≈ 2010 µM); IC50 ± SEM (CIMRSA 2; CIMRSA 2): 76.0 ± 2.4 µg/mL (≈ 306 µM); MIC (CIMRSA 2; CIMRSA 2): 250 µg/mL (≈ 1010 µM)
CCCCCCCCCCCCCCCC#CCO [Compound 2-ODOH, 2-Octadecyn-1-ol]	–	> 1000	> 1000	> 1000	> 1000	> 1000	> 1000	–	–	–	–	–	–	–	–	–	–	–	–
CCCCCCCCCCCCCCCC#CCOC1CCCCO1 (stereo not shown) [Compound 2-ODOTHP, 2-(2-Octadecynyloxy)-tetrahydro-2H-pyran]	–	> 1000	> 1000	> 1000	> 1000	> 1000	> 1000	inactive	–	–	–	–	–	–	–	–	–	–	–
CCCCCCCCCCCCCCCC#CC(=O)O [Compound 2-ODA, 2-Octadecynoic acid]	15.6	> 1000	7.8 (≈ 27.8 µM)	15.6 (≈ 55.6 µM)	> 1000	15.6 (≈ 55.6 µM)	125 (≈ 446 µM)	–	7.8 (≈ 27.8 µM)	4.3 (≈ 15.3 µM)	5.6 (≈ 20 µM)	11.9 (≈ 42.4 µM)	8.1 (≈ 28.9 µM)	68.8 (≈ 245 µM)	7.8 (≈ 27.8 µM)	5.5 (≈ 19.6 µM)	7.8 (≈ 27.8 µM)	5.5 (≈ 19.6 µM)	IC50 at 3 days [8, 23]: 58.9 ± 0.1 µg/mL (≈ 210 µM); IC50 ([9]; L. donovani, ref Carballeira et al., 2012): 11 µM; IC50 [10]: 5.3 µM
COc1cccc(OC)c1C(=O)N[C@@H]1C(=O)N2[C@@H]1SC(C)(C)[C@@H]2C(=O)O [Methicillin, reference compound]	–	> 1000	0.98 (≈ 2.58 µM)	62.5 (≈ 164 µM)	> 1000	0.06 (≈ 0.158 µM)	0.12 (≈ 0.315 µM)	–	7.8 (≈ 20.5 µM)	2.2 (≈ 5.78 µM)	0.36 (≈ 0.946 µM)	38.2 (≈ 100 µM)	0.03 (≈ 0.0789 µM)	0.06 (≈ 0.158 µM)	1.95 (≈ 5.13 µM)	0.98 (≈ 2.58 µM)	31.3 (≈ 82.3 µM)	11.8 (≈ 31 µM)	IC50 at 3 days [8]: 86.1 ± 0.5 µg/mL (≈ 226 µM)
CCCCCCCCCCCCCC#CCO [Compound 2-HDOH, 2-Hexadecyn-1-ol]	–	> 1000	> 1000	> 1000	> 1000	> 1000	> 1000	not active	–	–	–	–	–	–	–	–	–	–	–
CCCCCCCCCCCCCC#CC(=O)O [Compound 2-HDA, 2-hexadecynoic acid]	7.8	125 (≈ 495 µM)	7.8 (≈ 30.9 µM)	31.3 (≈ 124 µM)	> 1000	15.6 (≈ 61.8 µM)	15.5 (≈ 61.4 µM)	–	3.9 (≈ 15.5 µM)	3.3 (≈ 13.1 µM)	6.1 (≈ 24.2 µM)	17.2 (≈ 68.1 µM)	6.2 (≈ 24.6 µM)	8.8 (≈ 34.9 µM)	15.6 (≈ 61.8 µM)	9.4 (≈ 37.2 µM)	3.9 (≈ 15.5 µM)	3.4 (≈ 13.5 µM)	IC50 at 3 days [8, 23]: 57.2 ± 0.1 µg/mL (≈ 227 µM); MIC ([7]; read-out: MICs): 7.8 to 125 µg/mL (≈ 30.9 to 495 µM); IC50 ([2]; Pseudomonas aeruginosa): 87.8 µg/mL (≈ 348 µM); MIC (CIMRSA 1 [3]; Staphylococcus aureus, MRSA): 3.9 µg/mL (≈ 15.5 µM); IC50 ([9]; L. donovani amastigotes, ref Tasdemir et al., 2010): 17.8 µM; minimum inhibitory concentrations (MICs) [11]: 141 to 145 µM; IC50 [10]: 28.7 µM; MIC [6, 18]: 15.6 µg/mL (≈ 61.8 µM); active concentrations [12]: 5.0 to 21.4 µM
CCCCCCCCCCCCCC#CCOC1CCCCO1 (stereo not shown) [Compound 2-HDOTHP, 2-(2-Hexadecynyloxy)-tetrahydro-2H-pyran]	–	> 1000	> 1000	> 1000	> 1000	> 1000	> 1000	inactive	–	–	–	–	–	–	–	–	–	–	–
O=C(O)c1cn(C2CC2)c2cc(N3CCNCC3)c(F)cc2c1=O [Ciprofloxacin, reference compound]	–	0.24 (≈ 0.724 µM)	0.24 (≈ 0.724 µM)	0.05 (≈ 0.151 µM)	< 0.008	0.25 (≈ 0.754 µM)	< 0.002	–	–	–	0.13 (≈ 0.392 µM)	0.03 (≈ 0.0905 µM)	0.14 (≈ 0.423 µM)	–	0.5 (≈ 1.51 µM)	0.2 (≈ 0.604 µM)	–	–	IC50 at 3 days [8]: 66.4 ± 0.6 µg/mL (≈ 200 µM); IC50 ([2]; Pseudomonas aeruginosa): 0.11 µg/mL (≈ 0.332 µM)
CCCCCCCCCC#CCCC#CC(=O)O [2,6-HDA, 2,6-hexadecadiynoic acid]	125 to 500	250 (≈ 1010 µM)	62.5 (≈ 252 µM)	62.5 (≈ 252 µM)	> 1000	31.3 (≈ 126 µM)	62.5 (≈ 252 µM)	–	62.5 (≈ 252 µM)	39.5 (≈ 159 µM)	31.2 (≈ 126 µM)	46.1 (≈ 186 µM)	14.1 (≈ 56.8 µM)	21.5 (≈ 86.6 µM)	62.5 (≈ 252 µM)	22.3 (≈ 89.8 µM)	62.5 (≈ 252 µM)	22.4 (≈ 90.2 µM)	IC50 at 3 days [8, 23]: 63.4 ± 0.3 µg/mL (≈ 255 µM); IC50 ([2]; Pseudomonas aeruginosa): 132 µg/mL (≈ 533 µM); minimum inhibitory concentrations (MICs) [11]: 141 to 145 µM
CCCCCCCCCCCCCCCCCC#CC(=O)O [Compound 2-ICA, 2-icosanoic acid]	–	–	–	–	–	–	–	did not show antibacterial activity	–	–	–	–	–	–	–	–	–	–	MIC [2, 13]: >1,000 μg/mL; MIC [4, 14]: >1,000 μg/mL; MIC (B. cereus (ATCC 10876); [15]): >1,000 μg/mL; MIC (E. coli (ATCC 25922); [16]): >1,000 μg/mL; MIC (S. aureus (ATCC 29213); [17]): >1,000 μg/mL; MIC [6, 18]: >1,000 μg/mL
